One molecule from patent publication US11028095B2, “Spiro-lactam and bis-spiro-lactam NMDA receptor modulators and uses thereof” (Aptinyx Inc., priority 2016, dated 2021) can be followed below.

Data set [1] can be described thus: Microsomal stability (Rat). To be noted: rat microsomes. Format: in vitro ADME. How it is done:
(§1) Microsomal stability of disclosed compounds was investigated. The following table indicates the percent of compound remaining after 60 minutes.

The nature of the next data set: Plasma stability (Rat). Format: in vitro ADME. How it is done: (§2) Plasma stability of disclosed compounds was investigated. The following table indicates the percent of compound remaining after 60 minutes.
The nature of data set [2]: Microsomal stability (Human). Format: in vitro ADME. To be noted: human microsomes. How it is done: as §1
The nature of another data set: Plasma stability (Human). Format: in vitro ADME. How it is done:
as §2

Data set [3] deals with T1, NMDAR2A expressing HEK cell membranes (Homo sapiens, UniProt Q05586+Q12879).
T1 construct: expressed in transfected cells; host or cells: HEK cells (membrane extract)
T1 sequence (Q12879 23-1464, other chains not shown): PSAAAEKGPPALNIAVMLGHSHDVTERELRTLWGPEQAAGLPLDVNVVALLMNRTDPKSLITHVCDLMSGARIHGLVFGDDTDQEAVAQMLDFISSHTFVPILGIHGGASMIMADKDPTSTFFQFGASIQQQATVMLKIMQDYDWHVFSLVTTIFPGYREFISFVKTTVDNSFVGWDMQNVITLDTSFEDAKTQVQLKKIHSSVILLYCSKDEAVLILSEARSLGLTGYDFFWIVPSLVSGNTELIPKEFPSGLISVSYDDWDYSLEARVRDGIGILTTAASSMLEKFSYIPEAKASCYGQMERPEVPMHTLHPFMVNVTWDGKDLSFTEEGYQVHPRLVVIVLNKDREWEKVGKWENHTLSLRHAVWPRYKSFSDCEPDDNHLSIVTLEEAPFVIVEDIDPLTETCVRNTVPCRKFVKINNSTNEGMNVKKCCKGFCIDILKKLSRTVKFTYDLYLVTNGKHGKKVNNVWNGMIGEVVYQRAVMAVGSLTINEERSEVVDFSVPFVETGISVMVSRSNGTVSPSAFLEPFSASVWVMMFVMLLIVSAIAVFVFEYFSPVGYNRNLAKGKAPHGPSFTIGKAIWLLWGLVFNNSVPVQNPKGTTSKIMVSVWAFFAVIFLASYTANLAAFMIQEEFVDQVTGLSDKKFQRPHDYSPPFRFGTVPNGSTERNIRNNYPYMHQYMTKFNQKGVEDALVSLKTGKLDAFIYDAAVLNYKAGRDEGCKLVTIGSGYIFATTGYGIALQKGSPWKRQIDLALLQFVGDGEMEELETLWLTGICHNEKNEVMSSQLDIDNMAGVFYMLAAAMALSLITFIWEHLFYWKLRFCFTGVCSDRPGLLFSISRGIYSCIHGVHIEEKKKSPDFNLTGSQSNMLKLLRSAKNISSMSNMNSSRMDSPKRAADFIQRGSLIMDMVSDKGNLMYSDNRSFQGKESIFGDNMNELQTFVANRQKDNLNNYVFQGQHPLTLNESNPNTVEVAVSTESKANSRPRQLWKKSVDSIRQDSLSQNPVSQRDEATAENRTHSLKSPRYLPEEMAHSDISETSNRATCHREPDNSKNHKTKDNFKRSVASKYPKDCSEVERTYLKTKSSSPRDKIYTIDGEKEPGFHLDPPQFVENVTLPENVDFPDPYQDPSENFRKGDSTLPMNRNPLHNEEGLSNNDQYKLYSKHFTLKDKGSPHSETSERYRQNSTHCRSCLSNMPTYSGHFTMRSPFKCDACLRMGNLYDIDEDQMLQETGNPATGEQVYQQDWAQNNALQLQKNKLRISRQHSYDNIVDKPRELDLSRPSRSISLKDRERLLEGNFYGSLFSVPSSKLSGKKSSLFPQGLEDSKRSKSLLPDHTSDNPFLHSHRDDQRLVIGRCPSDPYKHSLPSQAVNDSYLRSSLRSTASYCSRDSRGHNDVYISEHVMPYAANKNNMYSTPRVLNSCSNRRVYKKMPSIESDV
The data set is described as follows: NMDAR agonist assay, [3H]MK-801 binding, NMDAR2A. Format: biochemical. How it is done: (§3) (nonequilibrium conditions).
(§4) The baseline value was determined from the best fit curve of the DPM values modeled using the GraphPad program and the log(agonist) vs. response(three parameters) algorithm was then subtracted from all points in the dataset.

Data set [4] concerns the target T2, NMDAR2C expressing HEK cell membranes (Homo sapiens, UniProt Q05586+Q14957).
T2 construct: expressed in transfected cells; host or cells: HEK cells (membrane extract)
Nature of the data set: NMDAR agonist assay, [3H]MK-801 binding, NMDAR2C. In kind it is biochemical. How it is done:
as §3, §4

Where only a bound is given, the exact number is not on record here.

T2 sequence (Q14957 20-1233, other chains not shown): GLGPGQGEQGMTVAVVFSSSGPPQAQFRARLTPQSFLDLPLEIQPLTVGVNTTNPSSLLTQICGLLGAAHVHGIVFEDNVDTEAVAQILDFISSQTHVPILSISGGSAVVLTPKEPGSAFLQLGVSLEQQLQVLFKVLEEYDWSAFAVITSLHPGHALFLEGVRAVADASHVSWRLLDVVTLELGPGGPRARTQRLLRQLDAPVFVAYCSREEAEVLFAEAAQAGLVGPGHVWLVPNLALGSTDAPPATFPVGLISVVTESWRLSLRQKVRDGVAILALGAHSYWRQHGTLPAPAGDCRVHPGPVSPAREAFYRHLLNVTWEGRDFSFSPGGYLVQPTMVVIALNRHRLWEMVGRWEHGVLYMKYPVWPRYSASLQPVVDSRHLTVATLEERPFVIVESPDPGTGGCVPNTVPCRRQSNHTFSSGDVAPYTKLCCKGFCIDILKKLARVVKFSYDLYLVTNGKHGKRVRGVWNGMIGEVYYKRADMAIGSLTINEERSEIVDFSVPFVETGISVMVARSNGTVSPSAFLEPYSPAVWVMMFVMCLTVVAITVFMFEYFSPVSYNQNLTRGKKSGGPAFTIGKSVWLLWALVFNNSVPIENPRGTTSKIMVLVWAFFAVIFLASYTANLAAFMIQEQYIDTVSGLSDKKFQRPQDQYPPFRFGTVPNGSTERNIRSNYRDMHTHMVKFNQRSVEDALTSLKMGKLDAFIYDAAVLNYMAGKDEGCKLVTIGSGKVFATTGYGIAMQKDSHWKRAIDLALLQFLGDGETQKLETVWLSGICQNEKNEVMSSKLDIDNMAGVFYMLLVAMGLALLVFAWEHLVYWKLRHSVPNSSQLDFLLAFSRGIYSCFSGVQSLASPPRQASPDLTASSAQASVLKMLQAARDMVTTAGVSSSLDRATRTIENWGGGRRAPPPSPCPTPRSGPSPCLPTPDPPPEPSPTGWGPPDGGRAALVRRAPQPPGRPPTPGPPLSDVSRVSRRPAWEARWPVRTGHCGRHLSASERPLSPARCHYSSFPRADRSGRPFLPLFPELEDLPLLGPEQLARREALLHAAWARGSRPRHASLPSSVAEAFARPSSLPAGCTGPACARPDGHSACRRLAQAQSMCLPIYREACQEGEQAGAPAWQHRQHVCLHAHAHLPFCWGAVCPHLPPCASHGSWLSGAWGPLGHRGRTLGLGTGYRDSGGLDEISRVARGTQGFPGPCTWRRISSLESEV

The term EC50 denotes the concentration giving half of the maximal effect. Consider `CC(C)CN1[C@@]2(CC[C@@]13CNC3=O)CNC2=O` [Compound AD, 5-isobutyl-2,5,8-triazadispiro[3.1.36.24]undecane-1,7-dione], for which the “Microsomal (Rat): percent of compound remaining after 60 minutes” value in data set [1] worked out at 100%. In the data set “Plasma stability (Rat)”, the “Plasma (Rat): percent of compound remaining after 60 minutes” value was 88%. Also, the “Microsomal (Human): percent of compound remaining after 60 minutes” value in data set [2] was 100%. Further, the “Plasma (Human): percent of compound remaining after 60 minutes” value in the data set “Plasma stability (Human)” worked out at 83%. Moreover, the EC50 in data set [3] (NMDAR2A: log EC50, 50 μM glutamate, [3H]MK-801 binding) is less than 1 nM; in data set [4] (NMDAR2C: log EC50, 50 μM glutamate, [3H]MK-801 binding) it was less than 1 nM. In addition, the Emax was less than 100% in data set [3] (read-out: NMDAR2A: % maximal [3H]MK-801 binding relative to 1 mM glycine, 50 μM glutamate, relative to 1 mM glycine) and less than 100% in data set [4] (read-out: NMDAR2C: % maximal [3H]MK-801 binding relative to 1 mM glycine).
